Experiment: Human HepG2 cell viability assay in 384 well format
Assay type: toxicity, cell-based
Parameters: dose 125 nL, time 70.5 hour; concentration not given beside the values
Conditions: HepG2 cells, read-out: Inhibition

| Compound | cytotoxicity at 70.5 h [%] |
| --- | --- |
| CCC(C(=O)NCc1ccncc1)N(c1ccccc1)S(C)(=O)=O (stereo not given) | -3.1 |
| CC(=O)N(C)Cc1cccc(NC(=O)N(C)CCc2cccs2)c1 | 11.4 |
| CN(Cc1ccccc1CNC(=O)C1CNC(=O)N1)C1CCCCC1 (stereo not given) | -4.23 |
| Cc1ccc(NC2CCN(C(=O)c3cccnc3N(C)C)CC2)nn1 | 0.412 |
| Cc1ccc(-c2nnn(CCN3C(=O)CCC3=O)n2)cc1 | -3.33 |
| COc1cc(CNc2nc(C(F)(F)F)no2)cc(OC)c1OC | -4.05 |
| c1ccc2nc(N3CCOC(Cn4cncn4)C3)cnc2c1 (stereo not given) | -5.96 |
| Cc1ccc(C(C(=O)N2CC(c3ccccn3)C2)N(C)C)cc1 (stereo not given) | 13 |
| c1cc(CN2CCN3C[C@H](Oc4cncnc4)C[C@H]3C2)ccn1 | -5.1 |
| CCC(NC(=O)c1nn(C)cc1C(=O)O)c1ccc(C)cc1 (stereo not given) | -5.71 |
| Cc1nn(C)c(C)c1CC(=O)NCc1cccnc1N1CCOCC1 | -5.49 |
| CC(C)c1nn(C)c(N(C)C)c1CNC1CCOc2c(F)cccc21 (stereo not given) | -2 |
| Cn1ncc2c1CCCC2NCc1cccc(F)c1 (stereo not given) | -14.3 |
| Cc1nc(-c2ccccc2)n(CC(=O)NC(C)C2CC2)n1 (stereo not given) | -5.73 |
| CS(=O)(=O)N1C[C@@H](C(=O)Nc2cnccn2)C[C@H]2OCC[C@H]21 | -7.68 |
| CCc1cnc(N)nc1N(C)CCc1cnn(C)c1 | 45.7 |
| Cc1nc(C2CCCN(C(=O)c3cc(-c4ccccc4)[nH]n3)C2)no1 (stereo not given) | -3.98 |
| CC(=O)N1CCCN(C(=O)NCCOc2ccc3c(c2)OCO3)CC1 | -8.5 |
| Cn1ncc(N2CCC(CNC3Cc4ccccc4C3)C2)cc1=O (stereo not given) | 3.7 |
| N#Cc1ccc(N2CCC3(CCCN(c4ccccn4)C3)C2)nc1 (stereo not given) | -1.5 |
| Cc1cc(-c2nn(C)c(Cl)c2CN2CCOCC2CC(=O)O)no1 (stereo not given) | -7.35 |
| CCc1c(-c2ccccc2)nc2c(c(C)c(C)n2CCN(C)C)c1N | 15.2 |
| C=C(C)COc1ccccc1NC(=O)N1CCOCC1CO (stereo not given) | 7.4 |

| Compound | cytotoxicity at 70.5 h [%] |
| --- | --- |
| COc1ncccc1C(=O)N1CC[C@H]2C[C@H](c3ccncn3)O[C@@H]2C1 | -14.1 |
| CCn1cc(CN2CCCn3nc(CCC(=O)NCCO)cc3C2)cn1 | -3.88 |
| c1cncc(NCCNC2CCSCC2)c1 | -2.74 |
| COCC(=O)N1CCCC2(CCN(c3ccsc3)C2=O)C1 (stereo not given) | 32.8 |
| N#CCCN(CC1CCOC1)Cn1ccc(-c2ccccc2)n1 (stereo not given) | -0.616 |
| Cc1cnn(C2CN(Cc3nc(-c4ccco4)no3)C2)c1 | -10.1 |
| CC(C)COCCC(=O)Nc1ccc2oc(=O)n(CCN(C)C)c2c1 | 17.6 |
| O=C(O)c1ccccc1-n1cc(CN2CCOC(c3cc[nH]n3)C2)cn1 (stereo not given) | -12.9 |
| Cn1c(CN2CCOCC2)cc(=O)c(O)c1CN1CCCC1 | -6.51 |
| CSCCCN1C[C@H]2CC[C@@H]1CN(Cc1[nH]cnc1C)C2 | -2.71 |
| CCc1nnc2n1CCN(C(=O)c1cc(Cl)c[nH]1)C2 | -1.1 |
| CNC(=O)CN1CCC(CN(C)Cc2ccncc2Cl)CC1 | -3.24 |
| Cc1cccc(C2(CNC(=O)CO)CCCC2)c1 | 17.1 |
| COc1ccc(-c2cc(C3CCCCCN3S(=O)(=O)N(C)C)on2)cc1 (stereo not given) | 8.12 |
| O=C(c1n[nH]c2c1CN(C1CCOC1)CC2)N1CCOCC1 (stereo not given) | -2.91 |
| Cc1ccccc1CC(C)(C)NC(=O)c1cccc(OCC(N)=O)c1 | -4.51 |
| N#Cc1ccc(CN2C[C@@H]3OCC(=O)N[C@@H]3C2)cc1 | -5.15 |
| COCCNC(=O)c1ccc(NCc2csc(C)n2)cc1Cl | -2.04 |
| CC(CNC(=O)c1cccc(-n2cccn2)c1)Cn1ccnc1 (stereo not given) | 2.48 |
| Cc1[nH]/c(=N\C(=O)c2csc(NC3CCCC3)n2)sc1C | 31.2 |
| O=C(NC1CC(F)(F)C1)[C@]12COC[C@H]1CN(Cc1ccccc1)C2 | -9.36 |
| Cc1cnc(N2CCCC(c3ccccc3)C2)nc1-c1ncnn1C (stereo not given) | -9.97 |
